Series [1] concerns rat. Kind of series: Acute toxicity LD50 in rat. It counts as in vivo.
Series [2] in a line: Ames-Test (mutagenicity).

Experimental findings from patent US9394238B2, “Process for the production of carnitine from β-lactones” (Lonza Ltd., priority 2010, dated 2016) are described below.

Consider `O=C(O)/C=C/CO` [hydroxycrotonic acid], for which, in series [1], the “LD50 (rat)” value is reported as greater than 2000 mg/kg bw. Moreover, the Ames-Test entry in series [2] was “negative”.
